Test results from patent publication US20100120717A1, “KINASE INHIBITORS” (priority 2006, published 2010).

Molecular target: Aurora B/INCENP (Homo sapiens, UniProt Q96GD4)
Test: Determination of inhibition of AIK: Aurora B/INCENP Direct Fluorescence Polarization (IMAP) assay
Assay type: biochemical
Conditions: 10 uM ATP, 0.8 nM Aurora B/INCENP, 45 min at room temperature; read-out: IC50 of Exemplified Compounds Against AIK B
Procedure: Detection of the reaction product is performed by addition of Progressive IMAP binding reagent (Molecular Devices). Reaction product may be determined quantitatively by FP using an Analyst HT plate reader (Molecular Devices) with an excitation wavelength at 485 nm and emission at 530 nm and using a Fluorescein 505 dichroic mirror.
The assay reaction may be initiated as follows: 2 ul of (3×) 300 nM Fl-Peptide/30 uM ATP was added to each well of the plate, followed by the addition of 2 ul of (3×) inhibitor (2 fold serial dilutions for 11 data points for each inhibitor) containing 15% DMSO. Two microliters of (3×) 2.4 nM AuroraB/INCENP solution may be added to initiate the reaction (final enzyme concentration was 0.8 nM for Aurora B/INCENP). The reaction mixture may then be incubated at room temperature for 45 min, and quenched and developed by addition of 20 ul of 1 to 400 diluted Progressive IMAP binding reagent in 1× proprietary Progressive IMAP binding buffer A. Fluorescence polarization readings of the resulting reaction mixtures may be measured after a 60-minute incubation at room temperature.
IC50 values may be calculated by non-linear curve fitting of the compound concentrations and fluorescent polarization values to the standard IC50 equation.

Sequence of Aurora B/INCENP (Q96GD4 whole entry): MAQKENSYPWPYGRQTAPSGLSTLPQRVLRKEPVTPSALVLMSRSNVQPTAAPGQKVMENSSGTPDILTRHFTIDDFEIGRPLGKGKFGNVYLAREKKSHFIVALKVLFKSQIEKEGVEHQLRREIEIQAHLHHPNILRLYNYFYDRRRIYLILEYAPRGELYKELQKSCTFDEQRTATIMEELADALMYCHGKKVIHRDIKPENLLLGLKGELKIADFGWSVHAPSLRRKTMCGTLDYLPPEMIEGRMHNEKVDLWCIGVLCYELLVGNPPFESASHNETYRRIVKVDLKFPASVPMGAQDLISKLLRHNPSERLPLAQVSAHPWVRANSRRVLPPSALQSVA
Sequence of Aurora B/INCENP (Q9NQS7 whole entry partner): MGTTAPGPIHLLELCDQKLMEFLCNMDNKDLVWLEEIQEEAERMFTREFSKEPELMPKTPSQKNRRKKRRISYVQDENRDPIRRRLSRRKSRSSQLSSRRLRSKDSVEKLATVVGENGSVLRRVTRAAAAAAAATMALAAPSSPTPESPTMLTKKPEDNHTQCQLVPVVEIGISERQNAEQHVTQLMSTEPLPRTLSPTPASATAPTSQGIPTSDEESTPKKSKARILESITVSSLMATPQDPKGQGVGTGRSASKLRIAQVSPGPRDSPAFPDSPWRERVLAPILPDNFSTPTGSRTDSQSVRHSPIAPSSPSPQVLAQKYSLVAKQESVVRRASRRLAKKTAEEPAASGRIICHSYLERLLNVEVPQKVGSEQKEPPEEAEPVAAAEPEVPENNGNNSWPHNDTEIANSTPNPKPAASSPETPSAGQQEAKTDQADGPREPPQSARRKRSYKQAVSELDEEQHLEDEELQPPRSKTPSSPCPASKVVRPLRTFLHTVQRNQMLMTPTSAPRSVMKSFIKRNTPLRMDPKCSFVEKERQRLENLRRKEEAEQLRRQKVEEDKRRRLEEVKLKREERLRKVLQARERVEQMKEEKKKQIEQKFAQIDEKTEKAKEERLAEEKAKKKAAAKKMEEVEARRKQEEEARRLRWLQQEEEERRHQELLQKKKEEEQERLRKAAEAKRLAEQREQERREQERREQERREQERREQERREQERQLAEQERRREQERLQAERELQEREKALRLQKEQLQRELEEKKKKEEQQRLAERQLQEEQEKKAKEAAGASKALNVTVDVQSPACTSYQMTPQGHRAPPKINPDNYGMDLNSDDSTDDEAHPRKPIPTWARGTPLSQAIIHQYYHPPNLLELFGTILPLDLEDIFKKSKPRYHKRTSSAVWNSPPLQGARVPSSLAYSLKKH

IC50, ≤ 5 nM:
CCS(=O)(=O)c1cccc(-c2ccc(OCCCN(C)CCOP(=O)(O)O)c3[nH]c4ncc(C)cc4c23)c1 [Compound 308, 2-((3-(5-(3-(ethylsulfonyl)phenyl)-3-methyl-9H-pyrido[2,3-b]indol-8-yloxy)propyl)(methyl)amino)ethyl dihydrogen phosphate]
Cc1cnc2[nH]c3c(OC[C@H](CN(C)C)OP(=O)(O)O)ccc(-c4cccc(S(=O)(=O)C5CC5)c4)c3c2c1 [Compound 314, (S)-1-(5-(3-(cyclopropylsulfonyl)phenyl)-3-methyl-9H-pyrido[2,3-b]indol-8-yloxy)-3-(dimethylamino)propan-2-yl dihydrogen phosphate]
Cc1cnc2[nH]c3c(OC[C@@H](CN(C)C)OP(=O)(O)O)ccc(-c4cccc(S(=O)(=O)C5CC5)c4)c3c2c1 [Compound 315, (R)-1-(5-(3-(cyclopropylsulfonyl)phenyl)-3-methyl-9H-pyrido[2,3-b]indol-8-yloxy)-3-(dimethylamino)propan-2-yl dihydrogen phosphate]
